In US20160002180A1, “ANTIVIRAL COMPOUNDS” (priority 2013, published 2016):

How the values were obtained:
Assay in all cases: microbe, parasite or virus in culture
Format in all cases: cell-based
[1] = system: HCVpp GT-1b (pseudotyped HCV GT1b particles, E1 and E2 envelope proteins of GT1b Con1 strain); details: Hepatitis C virus, 72 h, read-out: HCVpp GT-1b (EC50, μM)
[2] = system: HCVpp GT-1a (pseudotyped HCV GT1a particles, E1 and E2 envelope proteins of GT1a H77 strain); details: Hepatitis C virus, 72 h, read-out: HCVpp GT-1a (EC50, μM)
[3] = system: VSVpp (pseudotyped VSV G particles); details: Vesicular stomatitis virus, 72 h, read-out: VSVpp (EC50, μM)

| Compound | EC50 [1] [µM] | EC50 [2] [µM] | EC50 [3] [µM] |
| --- | --- | --- | --- |
| CC(C)Cc1nc(Nc2cc(Cl)cc(Cl)c2)n[nH]1 [Compound 33, (3,5-Dichloro-phenyl)-(5-isobutyl-1H-[1,2,4]triazol-3-yl)-amine] | 61.7 | 1.26 | 100 |
| Clc1cc(Cl)cc(Nc2n[nH]c(Cc3ccccc3)n2)c1 [Compound 34, (5-Benzyl-1H-[1,2,4]triazol-3-yl)-(3,5-dichloro-phenyl)-amine] | 13.5 | 0.785 | 38.9 |
| Clc1cc(Cl)cc(Nc2ncnn2Cc2ccccc2)c1 [Compound 24, (2-Benzyl-2H-[1,2,4]triazol-3-yl)-(3,5-dichloro-phenyl)-amine] | 32.5 | 27.1 | 34.9 |
| Fc1n[nH]c(Nc2cc(Cl)cc(Cl)c2)n1 [Compound 4, (3,5-Dichloro-phenyl)-(5-fluoro-2H-[1,2,4]triazol-3-yl)-amine] | 30.1 | 28.7 | 30.9 |
| Nc1cccc(Nc2ncn(Cc3ccccc3)n2)c1 [Compound 29, N-(1-Benzyl-1H-[1,2,4]triazol-3-yl)-benzene-1,3-diamine] | 87.2 | 95 | 100 |
| COCc1n[nH]c(Nc2cc(Cl)nc(Cl)c2)n1 [Compound 6, (2,6-Dichloro-pyridin-4-yl)-(5-methoxymethyl-2H-[1,2,4]triazol-3-yl)-amine] | 35.5 | 4.59 | 100 |
| Clc1cc(Cl)cc(Nc2n[nH]c(-c3ccccc3)n2)c1 [Compound 2, (3,5-Dichloro-phenyl)-(5-phenyl-1H-[1,2,4]triazol-3-yl)-amine] | 27.5 | 26.7 | 30.1 |
| COc1n[nH]c(Nc2cc(Cl)c(Br)c(Cl)c2)n1 [Compound 11, (4-Bromo-3,5-dichloro-phenyl)-(5-methoxy-2H-[1,2,4]triazol-3-yl)-amine] | 7.23 | 2.1 | 12.7 |
| Clc1cc(Cl)cc(Nc2ncn(Cc3ccccc3)n2)c1 [Compound 23, (1-Benzyl-1H-[1,2,4]triazol-3-yl)-(3,5-dichloro-phenyl)-amine] | 53 | 28.9 | 46.5 |
| FC(F)(F)c1nc(Nc2cc(Cl)cc(Cl)c2)n[nH]1 [Compound 22, (3,5-Dichloro-phenyl)-(5-trifluoromethyl-1H-[1,2,4]triazol-3-yl)-amine] | 5.63 | 5.5 | 6.7 |
| Fc1c(Cl)cc(Nc2nc[nH]n2)cc1Cl [Compound 28, (3,5-Dichloro-4-fluoro-phenyl)-(1H-[1,2,4]triazol-3-yl)-amine] | 3.77 | 0.477 | 84.1 |
| CS(=O)(=O)c1n[nH]c(Nc2cc(Cl)cc(Cl)c2)n1 [Compound 13, (3,5-Dichloro-phenyl)-(5-methanesulfonyl-2H-[1,2,4]triazol-3-yl)-amine] | – | 100 | 100 |
| CN(C)c1nc(Nc2cc(Cl)c(Br)c(Cl)c2)n[nH]1 [Compound 16, N^3-(4-Bromo-3,5-dichloro-phenyl)-N^5,N^5-dimethyl-1H-[1,2,4]triazole-3,5-diamine] | – | 1.58 | 43.1 |
| COc1n[nH]c(Nc2ccc(C#N)c(C(F)(F)F)c2)n1 [Compound 10, 4-(5-Methoxy-2H-[1,2,4]triazol-3-ylamino)-2-trifluoromethyl-benzonitrile] | 7.83 | 7.53 | 8.3 |
| Clc1cc(Nc2ncn[nH]2)cc(Cl)c1Cl [Compound 17, (2H-[1,2,4]Triazol-3-yl)-(3,4,5-trichloro-phenyl)-amine] | – | 0.392 | 28.2 |
| COc1n[nH]c(Nc2cc(Cl)cc(Cl)c2)n1 [Compound 8, (3,5-Dichloro-phenyl)-(5-methoxy-2H-[1,2,4]triazol-3-yl)-amine] | 52.6 | 15.9 | 100 |
| CNc1nc(Nc2ccc(C#N)c(C(F)(F)F)c2)n[nH]1 [Compound 21, 4-(5-Methylamino-1H-[1,2,4]triazol-3-ylamino)-2-trifluoromethyl-benzonitrile] | 5.01 | 1.26 | 24.9 |

| Compound | EC50 [1] [µM] | EC50 [2] [µM] | EC50 [3] [µM] |
| --- | --- | --- | --- |
| Clc1cc(Cl)cc(Nc2nc[nH]n2)c1 [Compound 25, (3,5-Dichloro-phenyl)-(1H-[1,2,4]triazol-3-yl)-amine] | 5.17 | 1.06 | 97 |
| CS(=O)(=O)c1n[nH]c(Nc2cc(Cl)c(Br)c(Cl)c2)n1 [Compound 14, (4-Bromo-3,5-dichloro-phenyl)-(5-methanesulfonyl-2H-[1,2,4]triazol-3-yl)-amine] | – | 100 | 100 |
| Fc1c(Cl)cc(Nc2n[nH]c(N3CCOCC3)n2)cc1Cl [Compound 31, (3,5-Dichloro-4-fluoro-phenyl)-(5-morpholin-4-yl-1H-[1,2,4]triazol-3-yl)-amine] | – | 25.8 | 29.9 |
| Fc1c(Cl)cc(Nc2ncnn2Cc2ccccc2)cc1Cl [Compound 26, (2-Benzyl-2H-[1,2,4]triazol-3-yl)-(3,5-dichloro-4-fluoro-phenyl)-amine] | 27.1 | 16.2 | 17.5 |
| NCc1nc(Nc2cc(Cl)cc(Cl)c2)n[nH]1 [Compound 3, (5-Aminomethyl-1H-[1,2,4]triazol-3-yl)-(3,5-dichloro-phenyl)-amine] | 100 | – | 100 |
| COCc1n[nH]c(Nc2cc(Cl)cc(Cl)c2)n1 [Compound 5, (3,5-Dichloro-phenyl)-(5-methoxymethyl-2H-[1,2,4]triazol-3-yl)-amine] | 24.2 | 4.13 | 100 |
| Clc1cc(Nc2ncn[nH]2)cc(Cl)c1Br [Compound 18, (4-Bromo-3,5-dichloro-phenyl)-(2H-[1,2,4]triazol-3-yl)-amine] | 2.52 | 0.252 | 22.4 |
| Cc1nc(Nc2cc(Cl)cc(Cl)c2)n[nH]1 [Compound 1, (3,5-Dichloro-phenyl)-(5-methyl-1H-[1,2,4]triazol-3-yl)-amine] | 6.25 | 1.99 | 100 |
| Clc1cc(Cl)cc(Nc2nc(Cl)n[nH]2)c1 [Compound 12, (5-Chloro-2H-[1,2,4]triazol-3-yl)-(3,5-dichloro-phenyl)-amine] | – | 13.8 | 14 |
| COc1n[nH]c(Nc2cc(Cl)nc(Cl)c2)n1 [Compound 9, (2,6-Dichloro-pyridin-4-yl)-(5-methoxy-2H-[1,2,4]triazol-3-yl)-amine] | 45.3 | 13.2 | 98 |
| CC(C)c1nc(Nc2cc(Cl)cc(Cl)c2)n[nH]1 [Compound 32, (3,5-Dichloro-phenyl)-(5-isopropyl-1H-[1,2,4]triazol-3-yl)-amine] | – | 22.1 | 33.8 |
| Fc1c(Cl)cc(Nc2ncn(Cc3ccccc3)n2)cc1Cl [Compound 27, (1-Benzyl-1H-[1,2,4]triazol-3-yl)-(3,5-dichloro-4-fluoro-phenyl)-amine] | 8.91 | 6.13 | 9.11 |
| CN(C)c1nc(Nc2cc(Cl)cc(Cl)c2)n[nH]1 [Compound 15, N^3-(3,5-Dichloro-phenyl)-N^5,N^5-dimethyl-1H-[1,2,4]triazole-3,5-diamine] | – | 24.8 | 100 |
| N#Cc1c(Cl)cc(Nc2ncn[nH]2)cc1Cl [Compound 20, 2,6-Dichloro-4-(2H-[1,2,4]triazol-3-ylamino)-benzonitrile] | 1.66 | 0.121 | 100 |
| Clc1cc(Cl)cc(Nc2nc(Br)n[nH]2)c1 [Compound 7, (5-Bromo-2H-[1,2,4]triazol-3-yl)-(3,5-dichloro-phenyl)-amine] | 20.8 | 16.5 | 28.2 |
| Clc1cc(Nc2nc[nH]n2)cc(Cl)n1 [Compound 30, (2,6-Dichloro-pyridin-4-yl)-(1H-[1,2,4]triazol-3-yl)-amine] | – | 1.06 | 100 |
| CNc1nc(Nc2cc(Cl)cc(Cl)c2)n[nH]1 [Compound 19, N^3-(3,5-Dichloro-phenyl)-N^5-methyl-1H-[1,2,4]triazole-3,5-diamine] | – | 3.41 | 100 |
